Measurements: PMC8450076, “Structural and mechanistic insights into the Artemis endonuclease and strategies for its inhibition” (Nucleic Acids Research, 2021)

Tests used:
[1] = target: T1, Artemis (SNM1C/DCLRE1C) (Homo sapiens, UniProt Q96SD1); test: biochemical
Target sequence in this assay (Q96SD1 whole entry, the tested form may be a part): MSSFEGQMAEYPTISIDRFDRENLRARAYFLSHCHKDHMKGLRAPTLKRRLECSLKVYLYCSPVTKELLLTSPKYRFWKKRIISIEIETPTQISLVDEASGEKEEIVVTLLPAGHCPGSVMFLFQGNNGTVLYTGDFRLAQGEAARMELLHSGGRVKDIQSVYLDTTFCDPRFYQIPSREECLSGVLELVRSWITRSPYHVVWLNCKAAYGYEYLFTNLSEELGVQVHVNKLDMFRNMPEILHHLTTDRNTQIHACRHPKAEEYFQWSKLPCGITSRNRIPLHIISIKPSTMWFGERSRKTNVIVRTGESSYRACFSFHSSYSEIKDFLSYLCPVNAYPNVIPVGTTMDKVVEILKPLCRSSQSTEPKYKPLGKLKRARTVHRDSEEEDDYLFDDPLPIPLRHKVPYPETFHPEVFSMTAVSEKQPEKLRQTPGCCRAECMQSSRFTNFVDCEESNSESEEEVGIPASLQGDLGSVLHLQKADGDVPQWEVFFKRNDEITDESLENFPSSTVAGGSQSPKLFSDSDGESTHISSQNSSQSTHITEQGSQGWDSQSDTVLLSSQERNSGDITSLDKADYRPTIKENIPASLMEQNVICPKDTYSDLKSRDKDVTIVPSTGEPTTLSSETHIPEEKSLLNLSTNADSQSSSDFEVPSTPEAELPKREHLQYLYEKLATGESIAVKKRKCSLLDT

[2] = target: T1, Artemis (SNM1C/DCLRE1C); test: X-ray crystal structure ([…] Å) plus real-time fluorescence-based nuclease assay (IC50); format: biochemical; set-up: truncated Artemis catalytic domain, MBL-β-CASP (aa 1-361)
Source text: We solved a structure of ceftriaxone bound to Artemis
Target sequence in this assay (Q96SD1 1-361): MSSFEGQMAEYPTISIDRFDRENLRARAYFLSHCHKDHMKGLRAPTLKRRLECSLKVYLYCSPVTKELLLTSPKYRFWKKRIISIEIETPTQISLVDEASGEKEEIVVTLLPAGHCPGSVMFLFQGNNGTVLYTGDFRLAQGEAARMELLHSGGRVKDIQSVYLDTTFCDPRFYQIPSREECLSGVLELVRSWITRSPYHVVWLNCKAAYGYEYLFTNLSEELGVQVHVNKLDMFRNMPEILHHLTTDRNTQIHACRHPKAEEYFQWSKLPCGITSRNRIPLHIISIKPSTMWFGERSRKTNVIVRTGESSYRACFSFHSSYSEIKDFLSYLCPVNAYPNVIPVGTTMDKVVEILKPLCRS

SMILES | IC50 [1] [µM] | also measured
CCN(CC)C(=S)SSC(=S)N(CC)CC [disulfiram] |  | IC50 ([1]; read-out: IC50): ~10.8 µM
CO/N=C(\C(=O)N[C@@H]1C(=O)N2C(C(=O)O)=C(CSc3nc(=O)c(=O)[nH]n3C)CS[C@H]12)c1csc(N)n1 [ceftriaxone] |  | IC50 [2]: 65 µM
CC[P](CC)(CC)=[Au][S][C@@H]1O[C@H](COC(C)=O)[C@@H](OC(C)=O)[C@H](OC(C)=O)[C@H]1OC(C)=O [auranofin] | 46 | 
O=c1c2ccccc2[se]n1-c1ccccc1 [ebselen] | ~8.5 | 
